Data published in ChEMBL document CHEMBL4196120, “Inhibition of Connexin Hemichannels by New Amphiphilic Aminoglycosides without Antibiotic Activity” (ACS Med Chem Lett, 2018).
Values after ≈ are worked out from the molar mass of the structure shown. Active and inactive are the calls of the source. The calls are words filed in the database; no cut-off is given here.

What was measured:
[1] = biological target: Gap junction beta-2 protein (Homo sapiens) (UniProt P29033); experiment: Inhibition of recombinant human Cx26 expressed in Escherichia coli LB2003 assessed as reduction in cell growth measured after 18 hrs
[2] = test system: HeLa; experiment: Cytotoxicity against human HeLa cells assessed as reduction in cell viability up to 100 ug/ml after 24 hrs by MTT assay; format: cell-based
[3] = test system: Staphylococcus aureus; experiment: Toxicity against Staphylococcus aureus ATCC 25923 measured after 18 to 24 hrs; format: organism-based; settings: in vivo
[4] = test system: HeLa; experiment: Cytotoxicity against human HeLa cells assessed as reduction in cell viability at 100 ug/ml after 24 hrs by MTT assay relative to control; format: cell-based
[5] = test system: Cx26; experiment: Ratio of compound effect for cytotoxicity against human HeLa cells to IC50 for recombinant human Cx26 expressed in Escherichia coli LB2003; format: toxicity
[6] = biological target: Gap junction beta-2 protein (Homo sapiens) (UniProt P29033); experiment: Inhibition of recombinant human Cx26 expressed in Escherichia coli LB2003 assessed as reduction in cell growth at 100 uM measured after 18 hrs

SMILES | Imax [1] [%] | Activity [2] | MIC [3] [µg/mL] | Activity [4] [%] | selectivity ratio [5] | inhibition [6]
NC[C@H]1O[C@H](O[C@H]2[C@H](O)[C@@H](O[C@@H]3O[C@H](COCc4ccc(Cl)cc4)[C@@H](OCc4ccc(Cl)cc4)[C@H](N)[C@H]3O)[C@H](N)C[C@@H]2N)[C@H](O)[C@@H](O)[C@@H]1O | 94 | Non-Toxic |  |  |  | 
CCCCCCCCOC[C@H]1O[C@@H](O[C@@H]2[C@@H](O)[C@H](O[C@H]3O[C@H](CN)[C@@H](O)[C@H](O)[C@H]3O)[C@@H](N)C[C@H]2N)[C@H](O)[C@@H](N)[C@@H]1OCCCCCCCC | 99 | Non-Toxic |  |  |  | 
CO[C@@H]1[C@@H](O[C@@H]2O[C@H](COCc3ccccc3)[C@@H](OCc3ccccc3)[C@H](N)[C@H]2OC)[C@H](N)C[C@H](N)[C@H]1O[C@H]1O[C@H](CN)[C@@H](OC)[C@H](OC)[C@H]1OC | 99 | Non-Toxic |  |  |  | 
CCCCCCOC[C@H]1O[C@@H](O[C@@H]2[C@@H](O)[C@H](O[C@H]3O[C@H](CN)[C@@H](O)[C@H](O)[C@H]3O)[C@@H](N)C[C@H]2N)[C@H](O)[C@@H](N)[C@@H]1OCCCCCC | 99 | Non-Toxic |  |  |  | 
NC[C@H]1O[C@H](O[C@H]2[C@H](O)[C@@H](O[C@@H]3O[C@H](COCc4cccc(-c5ccccc5)c4)[C@@H](OCc4cccc(-c5ccccc5)c4)[C@H](N)[C@H]3O)[C@H](N)C[C@@H]2N)[C@H](O)[C@@H](O)[C@@H]1O | 94 |  | 16 (≈ 19.6 µM) | 40 to 60 | ≤ 20 | 
Cc1ccc(COC[C@H]2O[C@@H](O[C@@H]3[C@@H](O)[C@H](O[C@H]4O[C@H](CN)[C@@H](O)[C@H](O)[C@H]4O)[C@@H](N)C[C@H]3N)[C@H](O)[C@@H](N)[C@@H]2OCc2ccc(C)cc2)cc1 | 94 | Non-Toxic |  |  |  | 
NC[C@H]1O[C@H](O[C@H]2[C@H](O)[C@@H](O[C@@H]3O[C@H](COCc4cccc5ccccc45)[C@@H](OCc4cccc5ccccc45)[C@H](N)[C@H]3O)[C@H](N)C[C@@H]2N)[C@H](O)[C@@H](O)[C@@H]1O | 94 | Non-Toxic | 64 (≈ 83.7 µM) |  |  | 
NC[C@H]1O[C@H](O[C@H]2[C@H](O)[C@@H](O[C@@H]3O[C@H](COCc4ccccc4)[C@@H](OCc4ccccc4)[C@H](N)[C@H]3O)[C@H](N)C[C@@H]2N)[C@H](O)[C@@H](O)[C@@H]1O | 99 | Non-Toxic |  |  |  | 
NC[C@H]1O[C@H](O[C@H]2[C@H](O)[C@@H](O[C@@H]3O[C@H](COCc4ccc5ccccc5c4)[C@@H](OCc4ccc5ccccc5c4)[C@H](N)[C@H]3O)[C@H](N)C[C@@H]2N)[C@H](O)[C@@H](O)[C@@H]1O | 94 |  |  | 40 to 60 | ≤ 20 | 
CO[C@@H]1[C@@H](O[C@@H]2O[C@H](CO)[C@@H](O)[C@H](N)[C@H]2OC)[C@H](N)C[C@H](N)[C@H]1O[C@H]1O[C@H](CN)[C@@H](OC)[C@H](OC)[C@H]1OC |  | Non-Toxic |  |  |  | inactive
CCCCOC[C@H]1O[C@@H](O[C@@H]2[C@@H](O)[C@H](O[C@H]3O[C@H](CN)[C@@H](O)[C@H](O)[C@H]3O)[C@@H](N)C[C@H]2N)[C@H](O)[C@@H](N)[C@@H]1OCCCC | 99 | Non-Toxic |  |  |  | 
NC[C@H]1O[C@H](O[C@H]2[C@H](O)[C@@H](O[C@@H]3O[C@H](COCc4ccc(F)cc4)[C@@H](OCc4ccc(F)cc4)[C@H](N)[C@H]3O)[C@H](N)C[C@@H]2N)[C@H](O)[C@@H](O)[C@@H]1O | 94 |  |  | 40 to 60 | ≤ 20 | 
CCCCCCCCCOC[C@H]1O[C@@H](O[C@@H]2[C@@H](O)[C@H](O[C@H]3O[C@H](CN)[C@@H](O)[C@H](O)[C@H]3O)[C@@H](N)C[C@H]2N)[C@H](O)[C@@H](N)[C@@H]1OCCCCCCCCC | 99 | Non-Toxic |  |  |  | 
CCCCCCO[C@H]1[C@H](N)[C@@H](O)[C@H](O[C@@H]2[C@@H](O)[C@H](O[C@H]3O[C@H](CN)[C@@H](O)[C@H](O)[C@H]3O)[C@@H](N)C[C@H]2N)O[C@@H]1CO | 99 | Non-Toxic |  |  |  | 
COc1ccc(COC[C@H]2O[C@@H](O[C@@H]3[C@@H](O)[C@H](O[C@H]4O[C@H](CN)[C@@H](O)[C@H](O)[C@H]4O)[C@@H](N)C[C@H]3N)[C@H](O)[C@@H](N)[C@@H]2OCc2ccc(OC)cc2)cc1 | 94 | Non-Toxic |  |  |  | 
